# Laboratory results: patent US20230355647A1, “Marker for determining anti-cancer effects of mitochondrial oxidative phosphorylation pathway inhibitor” (NANJING SHIJIANG MEDICINE TECHNOLOGY CO., LTD, priority 2020, published 2023)
# Columns and labels:
# Assay type in all cases: cell-based
# [1] = test system: OCI-AML-5; test: Cell viability (CellTiter-Glo), OCI-AML-5; settings: Homo sapiens; OCI-AML-5 cell line, 3-4 days of culture
# Description: (§1) Cell viability was detected using the Promega CellTiter-Glo kit, the kit reflected cell viability by directly measuring intracellular ATP content. The inhibitory effect (IC50 value) of Gboxin, a mitochondrial oxidative phosphorylation pathway inhibitor, on different tumor cell lines was tested in the Example. The name, source, and culture condition of each tumor cell line were as follows:
# Cell line OCI-AML-5 (DSMZ, No. ACC-247) was cultured in alpha-MEM medium containing 20% fetal bovine serum and 10% volume fraction of 5637 cell line adjusted medium (+P/S).
# (§2) The above tumor cells were cultured in the relevant medium (+P/S), and incubated for 3 h, then the gradient diluted Gboxin was added, and IC50 (50% inhibiting concentration) was measured after 3-4 days of culture.
# [2] = test system: PC-3; test: Cell viability (CellTiter-Glo), PC-3; settings: Homo sapiens; PC-3 cell line, 3-4 days of culture
# Description: as §1
# Cell line PC-3 (ATCC, No. CRL-1435) was cultured in 10% fetal bovine serum-containing F-12K medium (+P/S).
# as §2
# [3] = test system: GB-1; test: Cell viability (CellTiter-Glo), GB-1; settings: Homo sapiens; GB-1 cell line, 3-4 days of culture
# Description: as §1
# Cell line GB-1 (JCRB, No. IFO50489) was cultured in 10% fetal bovine serum-containing DMEM medium (+P/S).
# as §2
# Cell viability was detected using the Promega CellTiter-Glo kit, the kit reflected cell viability by directly measuring intracellular ATP content. In this experiment, the IC50 values of Oligomycin A or IACS-010759, a mitochondrial oxidative phosphorylation pathway inhibitor, on different tumor cells was determined.
# The different tumor cells were cultured in the relevant medium (+P/S) as shown in Example 2, and incubated for 3 h, then the gradient diluted Oligomycin A or IACS-010759 was added respectively, and IC50 (50% inhibiting concentration) of Oligomycin A or IACS-010759 on different tumor cells was measured after 3-4 days of culture.
# [4] = test system: OCI-M1; test: Cell viability (CellTiter-Glo), OCI-M1; settings: OCI-M1 cell line, 3-4 days of culture
# Description: as §1
# Cell line OCI-M1 (DSMZ, No. ACC-529) was cultured in 20% fetal bovine serum-containing IMDM medium (+P/S).
# as §2
# [5] = test system: 786-O; test: Cell viability (CellTiter-Glo), 786-O; settings: Homo sapiens, 786-0; 786-O cell line, 3-4 days of culture
# Description: as §1, with “follows: Cell line 786-O (ATCC, No. CRL-1932) was cultured in 10% fetal bovine serum-containing RPMI1640 medium (+P/S). […] Cell viability was detected using the Promega CellTiter-Glo kit, the kit reflected cell viability by directly measuring intracellular ATP content.” for “follows:”
# [6] = test system: PANC-1; test: Cell viability (CellTiter-Glo), PANC-1; settings: Homo sapiens; PANC-1 cell line, 3-4 days of culture
# Description: as §1
# Cell line PANC-1 (ATCC, No. CRL-1469) was cultured in 10% fetal bovine serum-containing DMEM medium (+P/S).
# as §2
# [7] = test system: D283 Med; test: Cell viability (CellTiter-Glo), D283 Med; settings: Homo sapiens; D283 Med cell line, 3-4 days of culture
# Description: as §1
# Cell line D283 Med (ATCC, No. HTB-185) was cultured in 10% fetal bovine serum-containing EMEM medium (+P/S).
# as §2
# [8] = test system: SU-DHL-2; test: Cell viability (CellTiter-Glo), SU-DHL-2; settings: Homo sapiens; SU-DHL-2 cell line, 3-4 days of culture
# Description: as §1
# Cell line SU-DHL-2 (ATCC, No. CRL-2956) was cultured in 10% fetal bovine serum-containing RPMI1640 medium (+P/S).
# as §2
# [9] = test system: OCI-AML-4; test: Cell viability (CellTiter-Glo), OCI-AML-4; settings: OCI-AML-4 cell line, 3-4 days of culture
# Description: as §1
# Cell line OCI-AML-4 (DSMZ, No. ACC-729) was cultured in alpha-MEM medium containing 20% fetal bovine serum and 20% volume fraction of 5637 cell line adjusted medium (+P/S).
# as §2
# [10] = test system: HCC1806; test: Cell viability (CellTiter-Glo), HCC1806; settings: Homo sapiens; HCC1806 cell line, 3-4 days of culture
# Description: as §1
# Cell line HCC1806 (ATCC, No. CRL-2335) was cultured in 10% fetal bovine serum-containing RPMI1640 medium (+P/S).
# as §2
# [11] = test system: NCI-H82; test: Cell viability (CellTiter-Glo), NCI-H82; settings: Homo sapiens; NCI-H82 cell line, 3-4 days of culture
# Description: as §1, with “follows: Cell line NCI-H82 (ATCC, No. HTB-175) was cultured in 10% fetal bovine serum-containing RPMI1640 medium (+P/S). […] Cell viability was detected using the Promega CellTiter-Glo kit, the kit reflected cell viability by directly measuring intracellular ATP content.” for “follows:”
# [12] = test system: G-402; test: Cell viability (CellTiter-Glo), G-402; settings: Homo sapiens; G-402 cell line, 3-4 days of culture
# Description: as §1
# Cell line G-402 (ATCC, No. CRL-1440) was cultured in 10% fetal bovine serum-containing McCoy's 5a medium (+P/S).
# as §2
# [13] = test system: MDA-MB-453; test: Cell viability (CellTiter-Glo), MDA-MB-453; settings: Homo sapiens; MDA-MB-453 cell line, 3-4 days of culture
# Description: as §1, with “follows: Cell line MDA-MB-453 (ATCC, No. HTB-131) was cultured in 10% fetal bovine serum-containing Leibovitz's L-15 medium (+P/S). […] Cell viability was detected using the Promega CellTiter-Glo kit, the kit reflected cell viability by directly measuring intracellular ATP content.” for “follows:”
# [14] = test system: SNU-398; test: Cell viability (CellTiter-Glo), SNU-398; settings: Homo sapiens; SNU-398 cell line, 3-4 days of culture
# Description: as §1
# Cell line SNU-398 (ATCC, No. CRL-2233) was cultured in 10% fetal bovine serum-containing RPMI1640 medium (+P/S).
# as §2
structure (smiles),measurement,setting,value
CCc1n(CC(=O)O[C@@H]2C[C@H](C)CC[C@H]2C(C)C)c2ccccc2[n+]1C.[Cl-] [Gboxin],IC50,[1],2.74 µM
same,IC50,[2],21.3 µM
same,IC50,[3],> 30 µM
same,IC50,[4],21.7 µM
same,IC50,[5],> 30 µM
same,IC50,[6],12 µM
same,IC50,[7],4.81 µM
same,IC50,[8],0.97 µM
same,IC50,[9],3.34 µM
same,IC50,[10],3.18 µM
same,IC50,[11],0.398 µM
same,IC50,[12],2.82 µM
same,IC50,[13],0.942 µM
same,IC50,[14],4.17 µM
